Data published in patent US8658620B2, “Pharmaceutical composition, use of 2-iminopyrrolidine derivative for production of pharmaceutical composition, and kit for treatment or amelioration of heart diseases” (Eisai R&D Management Co., Ltd., priority 2008, dated 2014).
Where a name gives a salt, the structure may show the parent alone.

Test system: guinea pig photosensitization-induced thrombus model
Experiment: guinea pig photosensitization-induced thrombus model (rose bengal / green light, femoral artery blood flow time)
Assay type: in vivo
Conditions: male Hartley guinea pigs, oral, about 115-120 min after administration, vehicle control 6.72 minutes
Procedure: At least one compound selected from the group consisting of the formulas (I) to (VII) or a pharmacologically acceptable salt thereof and at least one other compound (B) selected from group B are administered orally, single or in mixture, to male Hartley guinea pigs. As a vehicle, 0.5% methylcellulose solution or an aqueous solution containing dimethylsulfoxide and Tween 20 is used. (These compounds may be administered repeatedly.)
At a specific time after the oral administration, guinea pigs are anesthetized by intraperitoneal administration of sodium pentobarbital. Under anesthesia, the cervical vein is exposed and a polyethylene tube is cannulated thereinto for administering rose bengal. The femoral artery is exposed and fitted with a probe for blood flow measurement. A site upstream of the probe is irradiated with green light (wavelength 540 nm, 500,000 lux). […] Time to complete cessation of blood flow is measured.
A hydrobromide of a compound represented by the formula (I) (hereinafter, referred to as “the compound of Example 1”) and aspirin were dissolved with DMSO to give concentrations of 200 mg/mL and 1000 mg/mL, respectively. […] Blood flow time from the beginning of rose bengal administration to the complete cessation of blood flow was measured to evaluate antithrombotic effects.

| Compound | blood flow time from the beginning of rose bengal administration to the complete cessation of blood flow (compound of Example 1 alone 30 mg/kg) [min] | blood flow time from the beginning of rose bengal administration to the complete cessation of blood flow (aspirin alone 100 mg/kg) [min] |
| --- | --- | --- |
| CCOc1cc2c(c(F)c1OCC)C(=N)N(CC(=O)c1cc(N3CCOCC3)c(OC)c(C(C)(C)C)c1)C2 [Example 1, 1-(3-tert-Butyl-4-methoxy-5-morpholino-phenyl)-2-(5,6-diethoxy-7-fluoro-1-imino-1,3-dihydro-isoindol-2-yl)-ethanone; hydrobromide] | 10.77 | – |
| CC(=O)Oc1ccccc1C(=O)O [aspirin] | – | 11.30 |
